The subject of this assay is L1210 leukemia ip in BDF1 mice, survival T/C. The experiment in a line: NCI In Vivo Anticancer Drug Screen. Data for tumor model L1210 Leukemia (intraperitoneal) in B6D2F1 (BDF1) mice. Particulars: endpoint: mean survival time, higher = longer survival. The procedure, abridged:
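Value reflects the ratio of survival in compound-treated mice to survival in vehicle-treated controls, with both groups carrying the same transplanted tumor.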

The mark [1] stands for this setting: dose: 12.5 mg/kg/injection, schedule: Q04DX003 (ip), vehicle: saline.
Setting [2] is: dose: 25.0 mg/kg/injection, schedule: Q04DX003 (ip), vehicle: saline.
[3] abbreviates: dose: 50.0 mg/kg/injection, schedule: Q04DX003 (ip), vehicle: saline.
Where [4] appears, read: dose: 100.0 mg/kg/injection, schedule: Q04DX003 (ip), vehicle: saline.
[5] abbreviates: dose: 200.0 mg/kg/injection, schedule: Q04DX003 (ip), vehicle: saline.
[6] abbreviates: dose: 50.0 mg/kg/injection, schedule: Q01DX001 (ip), vehicle: saline.
[7] abbreviates: dose: 100.0 mg/kg/injection, schedule: Q04DX002 (ip), vehicle: saline with Tween-80.
Setting [8] is: dose: 200.0 mg/kg/injection, schedule: Q04DX002 (ip), vehicle: saline with Tween-80.
Where [9] appears, read: dose: 400.0 mg/kg/injection, schedule: Q04DX002 (ip), vehicle: saline with Tween-80.
[10] abbreviates: dose: 100.0 mg/kg/injection, schedule: Q01DX001 (ip), vehicle: saline.
Where [11] appears, read: dose: 50.0 mg/kg/injection, schedule: Q04DX003 (ip), vehicle: saline with Tween-80.

Each structure is given as a SMILES string. Values joined by “and” are separate entries in the source; they are usually repeats but may differ in a detail not shown here. Equal entries are not always repeated. Toxic doses and inconclusive results are not listed.

`FC(F)(F)c1ccc2c(c1)N(CCCN1CCN(CCN3CCCCC3)CC1)c1ccccc1S2`: the T/C by setting is: (dose: 12.5 mg/kg/injection, schedule: Q01DX009 (ip), vehicle: saline) 93 % of control; under setting [1], 94 % of control; (dose: 25.0 mg/kg/injection, schedule: Q01DX009 (ip), vehicle: saline) 86 % of control; under setting [2], 96 % of control; under setting [3], 92 % of control.

In the case of `O=C1/C(=C/c2c(Cl)cccc2Cl)CCC/C1=C\c1c(Cl)cccc1Cl`, the T/C reads like this: (dose: 100.0 mg/kg/injection, schedule: Q01DX009 (ip), vehicle: Klucel (hydroxypropylcellulose) (HPC)) 104 % of control; (dose: 100.0 mg/kg/injection, schedule: Q04DX003 (ip), vehicle: Klucel (hydroxypropylcellulose) (HPC)) 111 % of control; (dose: 200.0 mg/kg/injection, schedule: Q01DX009 (ip), vehicle: Klucel (hydroxypropylcellulose) (HPC)) 108 % of control; (dose: 200.0 mg/kg/injection, schedule: Q04DX003 (ip), vehicle: Klucel (hydroxypropylcellulose) (HPC)) 101 % of control; (dose: 400.0 mg/kg/injection, schedule: Q01DX009 (ip), vehicle: Klucel (hydroxypropylcellulose) (HPC)) 90 % of control; (dose: 400.0 mg/kg/injection, schedule: Q04DX003 (ip), vehicle: Klucel (hydroxypropylcellulose) (HPC)) 101 % of control.

`C[N+](C)([O-])CCC=C1c2ccccc2CCc2ccccc21`: the T/C was 103 % of control under setting [1]; 106 % of control under setting [2]; 103 % of control under setting [3]; 103 % of control under setting [4]; 97 % of control under setting [5].

For `CC(C)CCOc1ccc(C(N)=S)c2ccccc12`, the T/C runs as follows: (dose: 100.0 mg/kg/injection, schedule: Q01DX001 (ip), vehicle: Klucel (hydroxypropylcellulose) (HPC)) 112 % of control; (dose: 200.0 mg/kg/injection, schedule: Q01DX001 (ip), vehicle: Klucel (hydroxypropylcellulose) (HPC)) 112 % of control; (dose: 400.0 mg/kg/injection, schedule: Q01DX001 (ip), vehicle: Klucel (hydroxypropylcellulose) (HPC)) 102 % of control.

Turning to `Cc1cc(C)c(C[N+](C)(C)C)c(C)c1C`, under setting [6], the T/C was 102 % of control.

With `CN(C(=O)N(CCCl)N=O)C1CCC(C(=O)O)CC1` (stereo not given), the T/C reads like this: (dose: 12.0 mg/kg/injection, schedule: Q01DX009 (ip), vehicle: alkali diluted with saline) 95 % of control; (dose: 18.0 mg/kg/injection, schedule: Q01DX009 (ip), vehicle: alkali diluted with saline) 103 % of control; (dose: 24.0 mg/kg/injection, schedule: Q01DX001 (ip), vehicle: saline + Tween-80 + alkali) 93 % of control; (dose: 26.0 mg/kg/injection, schedule: Q01DX009 (ip), vehicle: alkali diluted with saline) 103 % of control; (dose: 36.0 mg/kg/injection, schedule: Q01DX001 (ip), vehicle: saline + Tween-80 + alkali) 98 % of control; (dose: 40.0 mg/kg/injection, schedule: Q01DX009 (ip), vehicle: alkali diluted with saline) 111 % of control. Besides, the T/C is 98 % of control (dose: 54.0 mg/kg/injection, schedule: Q01DX001 (ip), vehicle: saline + Tween-80 + alkali); 119 % of control (dose: 60.0 mg/kg/injection, schedule: Q01DX009 (ip), vehicle: alkali diluted with saline); 104 % of control (dose: 80.0 mg/kg/injection, schedule: Q01DX001 (ip), vehicle: saline + Tween-80 + alkali); 113 % of control (dose: 120.0 mg/kg/injection, schedule: Q01DX001 (ip), vehicle: saline + Tween-80 + alkali); 121 % of control (dose: 180.0 mg/kg/injection, schedule: Q01DX001 (ip), vehicle: saline + Tween-80 + alkali); 180 % of control (dose: 400.0 mg/kg/injection, schedule: Q01DX001 (ip), vehicle: saline + Tween-80 + alkali).

As to `CCc1ccc2c(-c3ccccc3)ccc3c2c1C(=O)c1ccccc1-3`, the T/C under setting [7] was 94 % of control, the T/C under setting [8] was 88 % of control and the T/C under setting [9] was 91 % of control.

Take `O=[N+]([O-])c1cccc(-c2cnc(-c3ccccc3)cc2-c2ccccc2O)c1`: the T/C runs as follows: under setting [7], 94 % of control; under setting [8], 94 % of control; under setting [9], 102 % of control.

In the case of `CCCCC(CC)COP(=O)(OCC(CC)CCCC)c1ccccc1` (stereo not given), the T/C under setting [6] was 100 % of control and the T/C under setting [10] is 100 % of control.

For `Cc1cc(C)c2c(c1)CC2=O`, the T/C was 96 % of control (dose: 50.0 mg/kg/injection, schedule: Q04DX002 (ip), vehicle: Klucel (hydroxypropylcellulose) (HPC)); 112 % of control (dose: 100.0 mg/kg/injection, schedule: Q04DX002 (ip), vehicle: Klucel (hydroxypropylcellulose) (HPC)); 86 % of control (dose: 200.0 mg/kg/injection, schedule: Q04DX002 (ip), vehicle: Klucel (hydroxypropylcellulose) (HPC)).

In the case of `Cc1cccc(C2=NCCN2)c1C`, the T/C is 97 % of control (dose: 5.0 mg/kg/injection, schedule: Q01DX009 (ip), vehicle: saline with Tween-80); 103 % of control (dose: 10.0 mg/kg/injection, schedule: Q01DX009 (ip), vehicle: saline with Tween-80); 97 % of control (dose: 20.0 mg/kg/injection, schedule: Q01DX009 (ip), vehicle: saline with Tween-80).

With `O=C(O)/C=C/C(=O)Nc1ccc(I)cc1`, the T/C runs as follows: under setting [11], 104 % of control; (dose: 100.0 mg/kg/injection, schedule: Q04DX003 (ip), vehicle: saline with Tween-80) 104 % of control; (dose: 200.0 mg/kg/injection, schedule: Q04DX003 (ip), vehicle: saline with Tween-80) 104 % of control.

Take `Cc1cccnc1N1CCNC1=O`: the T/C runs as follows: under setting [2], 92 % of control; under setting [3], 103 % of control; under setting [4], 96 % of control and 117 % of control.

With `O=[N+]([O-])c1ccc2[nH]c(=S)[nH]c2c1`, the T/C runs as follows: under setting [4], 98 % of control; under setting [5], 103 % of control; (dose: 400.0 mg/kg/injection, schedule: Q04DX003 (ip), vehicle: saline) 95 % of control.

As to `O=c1oc(Cl)cc2oc(=O)n(-c3ccccc3)c(=O)c12`, the T/C (dose: 6.25 mg/kg/injection, schedule: Q01DX009 (ip), vehicle: saline with Tween-80) is 106 % of control; the T/C (dose: 12.5 mg/kg/injection, schedule: Q01DX009 (ip), vehicle: saline with Tween-80) is 98 % of control; the T/C (dose: 25.0 mg/kg/injection, schedule: Q01DX009 (ip), vehicle: saline with Tween-80) is 93 % of control and 109 % of control; the T/C (dose: 25.0 mg/kg/injection, schedule: Q04DX002 (ip), vehicle: saline with Tween-80) was 98 % of control; the T/C (dose: 50.0 mg/kg/injection, schedule: Q04DX002 (ip), vehicle: saline with Tween-80) was 102 % of control; the T/C under setting [7] was 96 % of control and 98 % of control.

Consider `NC(N)=N/N=C\c1ccc(OCc2ccccc2)cc1`, for which the T/C by setting is: (dose: 15.0 mg/kg/injection, schedule: Q01DX Z (ip), vehicle: saline) 96 % of control; (dose: 15.0 mg/kg/injection, schedule: Q01DX Z (oral), vehicle: saline) 91 % of control; (dose: 30.0 mg/kg/injection, schedule: Q01DX Z (ip), vehicle: saline) 102 % of control; (dose: 30.0 mg/kg/injection, schedule: Q01DX Z (oral), vehicle: saline) 94 % of control; (dose: 60.0 mg/kg/injection, schedule: Q01DX Z (oral), vehicle: saline) 90 % of control; (dose: 120.0 mg/kg/injection, schedule: Q01DX010 (oral), vehicle: saline) 102 % of control. In addition, the T/C reads like this: (dose: 120.0 mg/kg/injection, schedule: Q01DX Z (oral), vehicle: saline) 89 % of control; (dose: 240.0 mg/kg/injection, schedule: Q01DX010 (oral), vehicle: saline) 102 % of control; (dose: 400.0 mg/kg/injection, schedule: Q01DX010 (oral), vehicle: saline) 91 % of control.

`COc1cc(OC)c(OC)cc1/C=C\c1ccc2ccccc2[n+]1C`: the T/C runs as follows: (dose: 25.0 mg/kg/injection, schedule: Q04DX003 (ip), vehicle: saline with Tween-80) 101 % of control; under setting [11], 90 % of control.

With `COc1ccc(C(CC(=O)O)c2ccccc2)cc1` (stereo not given), the T/C is, setting by setting: under setting [10], 94 % of control; (dose: 200.0 mg/kg/injection, schedule: Q01DX001 (ip), vehicle: saline) 93 % of control; (dose: 400.0 mg/kg/injection, schedule: Q01DX001 (ip), vehicle: saline) 100 % of control.
